Source: a melting point compilation (Tetko et al.; mined from patent text by program, amines drawn as free bases though some values may be those of a salt)

Row | SMILES | melting point [°C]
1 | CCOc1ccccc1C(=O)Nc1ccc(C(=O)N2CCC(F)(F)/C(=C\C(=O)N(C)C)c3ccccc32)cc1 | 195 to 198
2 | O=S(=O)(CCl)N(Cc1cccnc1)C1CCCCC1 | 67 to 72
3 | CCC(CC)CCOCCCCCCNCC(O)c1ccc(O)c(NS(C)(=O)=O)c1 (stereo not drawn) | 69 to 71
4 | O=[N+]([O-])c1cccc(Oc2nccnc2Cl)c1 | 119 to 121
5 | Cc1cc(Cl)c(C)c(S(=O)(=O)Nc2onc(C)c2Br)c1 | 148 to 150
6 | C=Cc1ccnc2c([N+](=O)[O-])cccc12 | 134
7 | CCOc1ccc(-c2nc(-c3ccc(OC4OC(COC(C)=O)C(OC(C)=O)C(OC(C)=O)C4OC(C)=O)cc3)cs2)cc1OCC (stereo not drawn) | 180 to 181
8 | COC(=O)Cc1ccc(OCCNC(=O)C2Cc3ccccc3N2S(=O)(=O)c2ccc(-c3cc(C(F)(F)F)ccc3Cl)cc2)c(Cl)c1 (stereo not drawn) | 68 to 76
9 | COc1ccc(OC)c(-c2c(C(C)C)cc(C(C)C)cc2C(C)C)c1I | 189 to 191
10 | COc1ccc(S(=O)(=O)C2(C(=O)NO)CCN(Cc3ccc(Br)cc3)CC2)cc1 | 180
11 | CCOC(=O)C(CSC12CC3CC(CC(C3)C1)C2)NC(C)C(=O)O (stereo not drawn) | 68 to 72
12 | CCOC(=O)C(C)(C)Sc1ccc(O)cc1 | 68 to 69
13 | CC(O)CN1C(=O)N(CN2C(=O)N(CC(C)O)C(=O)C2(C)C)C(C)(C)C1=O (stereo not drawn) | 131 to 133
14 | Cc1cc2c(cc1S(=O)(=O)N1CCOCC1)S(=O)(=O)NC(C1CCCCC1)N2 (stereo not drawn) | 268 to 271
15 | C/C(=C\c1ccc(OC(C)C)cc1Oc1ncc(C(F)(F)F)cc1Cl)C(=O)O | 114
16 | O=C(O)c1cn(C2CC2)c2c(C(F)(F)F)c(N3CCC(c4ccncc4)C3)c(F)cc2c1=O (stereo not drawn) | 244 to 245
17 | COC(=O)c1c(C(F)F)nc(C(F)(F)F)c(C2CC(C)N(O)C2)c1CC1CC1 (stereo not drawn) | 142 to 144
18 | COc1ccc(C=NS(=O)(=O)c2ccc(C)cc2)cc1 | 127
19 | COC(=O)c1c(C2CC2)nn2ccc3c(c12)CCO3 | 170 to 172
20 | COC(=O)c1sc(Br)cc1N | 173 to 176
21 | CCCCc1nc(=O)c2cc(C3=NN(C(c4ccccc4)(c4ccccc4)c4ccccc4)[C@H]4C(=O)N(C)C(=O)[C@@H]34)ccc2[nH]1 (relative stereo) | 182
22 | CCCn1cc2c(C3C(=O)Nc4ccc(Br)cc43)nc(NCCc3cccnc3)nc2n1 (stereo not drawn) | 294 to 297

Row | SMILES | melting point [°C]
23 | Cc1ccc(Cl)cc1N1CN(C(C)(C)C)CN(C)C1=S | 130 to 132
24 | COc1cc(N2CCOCC2)ccc1Nc1nc(Nc2ccc3c(c2)CCC(=O)CC3)ncc1Cl | 212 to 215
25 | CCCCCCNC(=O)C(CCC(=O)O)NC(=O)C(NC(=O)OC(C)(C)C)C(C)C (stereo not drawn) | 63 to 65
26 | COC(=O)c1sc(C(F)(F)F)cc1OC | 78 to 79
27 | Oc1cc2cc3c(ccc4cc(O)c(O)cc43)nc2cc1O | > 270
28 | Cc1ccc(-c2ccc(S(C)(=O)=O)cc2)n1-c1ccc(-c2ccco2)cc1 | 145 to 147
29 | CC1(C)SC(c2ccc([N+](=O)[O-])o2)NC1C(=O)O (stereo not drawn) | 147 to 148
30 | CCC(=O)N[C@@H](C)C(=O)N1CCC[C@H]1C(=O)NC1CCCCCCC1 | 142 to 143
31 | NCC1Cc2cc(C(F)(F)F)cc(-c3ccc(F)c(Cl)c3)c2O1 (stereo not drawn) | > 250
32 | Nc1ccc(-c2ncc(Br)cn2)c([N+](=O)[O-])c1 | 165 to 167
33 | Nc1c(F)cncc1F | 99 to 101
34 | CCC1(CC)CN(C(C)(C)C)C(=O)C(CC)(CC)N1OC(C)(C)C#N | 45 to 52
35 | COc1ccc(N2CCN(c3c(C)c4c(c(OC(C)C)c3C)OC(C)C4)CC2)cc1 (stereo not drawn) | 110 to 112
36 | CC(=O)Oc1cc2c(s1)C(N1CCCC1=O)CC(C)(C)O2 (stereo not drawn) | 92 to 93
37 | COC1=NS(=O)N=C1OC | 137 to 139
38 | COC(=O)c1sccc1S(=O)(=O)NC(=O)Nc1nc(OC)cc(OC)n1 | 191 to 193
39 | COc1cc(-c2ccccc2C(F)(F)F)c(Cl)cc1C(=O)N1Cc2ccc(C(=O)N(C)Cc3cccnc3)n2Cc2ccccc21 | 124 to 126
40 | COc1ccc(C=C2NC(=O)NC2=O)cc1OC1CCCC1 | 220 to 222
41 | Fc1cc(Cl)ccc1-n1nc2c(c1Cl)CSCC2 | 97 to 99
42 | CCOC(=O)[C@H](Cc1ccc(NC(=O)c2c(Cl)cncc2Cl)cc1)NC1=CC(=O)C12CCCCC2 | 194
43 | Cc1nnc(Cl)c(-c2c(F)cc(F)cc2F)c1-c1cccs1 | 90 to 92
44 | C=C(C)CSc1ccccc1S(=O)(=O)NC(C)(C)C | 104 to 107

Row | SMILES | melting point [°C]
45 | O=C1C(=Cc2cccnc2)CCc2ccc(Br)cc21 | 124 to 125
46 | COc1cc(Cc2nccc3c(OC(C)=O)cc(OC(C)=O)cc23)cc(OC)c1OC | 118 to 120
47 | CCCCCCCCCCCCCC=C1CC(CO)(COC(C)=O)OC1=O (racemic) | 58 to 59
48 | O=C(CCCN1CCC(c2ccc(Cl)cc2)CC1)c1ccc(CN2CCCC2)cc1 | 63 to 65
49 | CCOC(=O)c1cnc(NC(=O)C(Cc2ccc(F)cc2)c2ccc(S(C)(=O)=O)cc2)cn1 (stereo not drawn) | 99 to 100
50 | C[C@H]1[C@@H](O)C(F)(F)C(=O)N1c1ccc(C#N)c(C(F)(F)F)c1 | 128 to 131
51 | C=CCc1cc(C=C(C(=O)OCC)C(=O)OCC)ccc1OC | 69
52 | Cc1cc(C2=NOC(c3cc(Cl)cc(Cl)c3)(C(F)(F)F)C2)ccc1C(=O)NC(N)=O (stereo not drawn) | 201 to 205
53 | NNC(=O)c1ccc2c(c1)CCO2 | 148 to 149
54 | Cc1cc(CNC(=O)C(=O)NCCc2ccccn2)c(C)o1 | 112 to 115
55 | On1c(C(F)(F)F)nc2nc(Br)c(Cl)c(Br)c21 | 215
56 | O=C1NC(=O)c2ccc(Br)cc2/C1=C/c1cc(Br)c(O)c(Br)c1 | 167 to 168
57 | CCCc1c2c(c([N+](=O)[O-])c3c(=O)cc(C(=O)OCC)oc13)CC(C(=O)OCC)CC2 (stereo not drawn) | 164 to 166
58 | COc1ccc(C=C2NC(=O)N(C)C2=O)cc1 | 221 to 222
59 | FC(F)(F)c1ccccc1OCCCc1cn(C(c2ccccc2)(c2ccccc2)c2ccccc2)cn1 | 204 to 208
60 | CCOC(=O)C(Cc1ccc(C(F)(F)F)cc1)C(=O)c1ccc(F)cc1 (stereo not drawn) | 56 to 57
61 | COC(=O)NCC1CN(c2ccc(-n3cnc(Cn4cccn4)c3)c(F)c2)C(=O)O1 (stereo not drawn) | 130
62 | CCOC(=O)C=Cc1ccc(O)c(C(F)(F)F)c1C(F)(F)F | 138 to 140
63 | COc1ccc(CN2Cc3cncn3C(c3ccc(C#N)cc3)C2=O)cc1 (stereo not drawn) | 155 to 157
64 | CCCCOC(=O)COc1cc(F)c([N+](=O)[O-])cc1[N+](=O)[O-] | 113 to 115
65 | COC1CCN(CC=CC(=O)Nc2cc3c(Nc4ccc(F)c(Cl)c4)ncnc3cc2OCC2CC2)CC1 | 129 to 130
66 | O=C=Nc1ccc(OCC(=O)OCCOC(=O)COc2ccc(N=C=O)cc2)cc1 | 96 to 98

Second part, the compound after the results:

Row | melting point [°C] | SMILES
67 | 146 | CCN(CC)C(=O)CCc1nc(-c2ccccc2)nc2ccc(Br)cc12
68 | 206 to 207 | Cc1ccc(-c2c(-c3ccc(S(C)(=O)=O)cc3)[nH]c3ccccc23)cc1C
69 | 267 to 268 | O=C(NCc1cocn1)c1cc(-n2cnn(Cc3ccc(F)cc3)c2=O)n[nH]1
70 | 126 to 130 | O=C(O)c1c[nH]c(CCc2ccccc2)n1
71 | 162 | OC(CCC1CCNCC1)c1cc(-c2ccccc2)nc2ccccc12 (stereo not drawn)
72 | 208 to 209 | Cn1c2cc(Cl)ccc2c2c(C(=O)O)nc(-c3ccccc3)nc21
73 | 114 to 116 | CCn1nc(OCCCc2ccc(OCCOC)cc2OCc2ccc(Cl)cc2Cl)cc1CCC(=O)O
74 | 155 to 157 | O=C(O)c1ccccc1OCCCN1C(=O)c2ccccc2C1=O
75 | 187 to 189 | Clc1ccc(C(N=C2NCCN2)c2ccccc2)cc1 (stereo not drawn)
76 | 112 to 115 | COC(=O)Cn1cnc2c(OCc3ccccc3)ncnc21
77 | 156 to 157 | CN(Cc1cccc(O)c1)c1cnc(-c2ccccc2)c(-c2ccccc2)n1
78 | 165 to 166 | c1ccc(Cn2c(NC3=NCCN3)nc3ccccc32)cc1
79 | 83 to 84 | O=C(NCCOc1ccc(CC(Oc2ccccc2)C(=O)O)cc1Br)c1ccc(-c2ccccn2)cc1 (stereo not drawn)
80 | 235 to 238 | CC(C)CNC(=O)Nc1c(C(=O)c2ccccc2)[nH]c2cc(Cl)ccc12
81 | 125 to 128 | CCOC(=O)c1c(-c2cccc([N+](=O)[O-])c2)cc(-c2ccccc2)nc1CBr
82 | 231 to 232 | CCn1nc2c(N)nc3ccccc3c2c1CC1(O)CCN(C(C)=O)CC1

Row | melting point [°C] | SMILES
83 | 91 to 92 | COC(=O)C1(C)c2ccccc2Oc2ccccc21
84 | 130 | CC(C)(Oc1ccc(Cc2ccccc2)cc1)C(=O)O
85 | 133 to 134 | CCOc1cnc(C)c(S(=O)(=O)c2ccc(OCc3ccccc3)cc2)c1
86 | 249 to 251 | CC(C)=CCn1c(=O)c(C2=Nc3ccccc3S(=O)(=O)N2)c(O)c2ccccc21
87 | 123 to 124 | CCOC(=O)c1ccc(-c2c(Cl)c(CCl)nc3sc4c(c23)CCN(C(=O)OCc2ccccc2)C4)cc1
88 | 197 | CCOC(=O)c1c(N2CCN(C(=O)c3cccs3)CC2)c2cc(Cl)cnc2n(Cc2ccccc2)c1=O
89 | 192 to 194 | NS(=O)(=O)c1ccc(-n2nc(CO)cc2-c2ccc(Cl)cc2)cc1
90 | 174 | CC(=O)Nc1ccc(N(C)C(=O)OCc2ccccc2)c(O)c1
91 | 113 to 114 | Clc1ccc(OC2CN(C(c3ccccc3)c3ccccc3)C2)cc1
92 | 124 to 126 | CCOC(=O)C1CCN(c2cc(-c3ccc(Cl)cc3)nc3ccccc23)CC1
93 | 162 to 164 | CC1C(=O)N(c2ccccc2O)Sc2ccccc21 (stereo not drawn)
94 | 236 to 238 | Clc1ccc(Nc2nc3ccccc3c3[nH]c(C4CCCCCC4)nc23)cc1Cl
95 | 73 to 77 | N#Cc1c(N)cccc1Sc1ccccc1
96 | 51.5 to 53.5 | OC(c1cccc(Oc2ccccc2)n1)C(F)(F)F (stereo not drawn)
97 | 234 | CCCCc1nc(=O)n2nc(-c3ccccc3)cc2[nH]1
98 | 66 to 69 | c1ccc2c(c1)N=C(N1CCNCC1)c1ccccc1S2
